Here are results for 22 compounds from patent US20230041563A1, “N-(1,3,4-OXADIAZOL-2-YL)ARYLCARBOXAMIDES OR SALTS THEREOF, PREPARATION METHODS, HERBICIDAL COMPOSITIONS AND USES THEREOF” (priority 2018, published 2023).

For the assay, the system named is weeds. The experiment in a line: Actual control effects and combined effects of mixtures of active ingredients (i) and (ii), stem-leaf treatment, Gowing method. Type of assay: in vivo. Conditions: 20 days. The procedure: According to the actual control effect and the property of the herbicides, the balance of the formula and other factors, the optimal ratio was determined. In the calculation formula: X represents the fresh weight inhibition rate when the active ingredient (i) is used in an amount of P; and Y represents the fresh weight inhibition rate when the active ingredient (ii) is used in an amount of Q. The statistical results are shown in Tables 9-11 below.

[1] abbreviates: 480 h, Echinochloa phyllopogon, (ii) 3 g a.i./mu, stem-leaf treatment, read-out: Control effect of (ii) alone at corresponding dose.
The mark [2] stands for this setting: 480 h, Echinochloa phyllopogon, (ii) 15 g a.i./mu, read-out: Control effect of (ii) alone at corresponding dose.
[3] abbreviates: Echinochloa phyllopogon, (ii) 3 g a.i./mu.
Setting [4] is: Monochoria vaginalis, (ii) 3 g a.i./mu.
Where [5] appears, read: Monochoria vaginalis, (ii) 3 g a.i./mu, stem-leaf treatment.
Where [6] appears, read: Leptochloa chinensis, (ii) 3 g a.i./mu.
Setting [7] is: 480 h, Echinochloa phyllopogon, (ii) 15 g a.i./mu, stem-leaf treatment, read-out: Control effect of (ii) alone at corresponding dose.
Setting [8] is: Echinochloa phyllopogon, (ii) 15 g a.i./mu.
Setting [9] is: Monochoria vaginalis, (ii) 5 g a.i./mu.
Setting [10] is: Cyperus difformis, (ii) 3 g a.i./mu.
Where [11] appears, read: Leptochloa chinensis, (ii) 15 g a.i./mu.
The mark [12] stands for this setting: 480 h, Echinochloa phyllopogon, (ii) 30 g a.i./mu, read-out: Control effect of (ii) alone at corresponding dose.
Setting [13] is: Echinochloa phyllopogon, (ii) 0.6 g a.i./mu.
Where [14] appears, read: Pontederia vaginalis, 480 h, Monochoria vaginalis, (ii) 3 g a.i./mu, stem-leaf treatment, read-out: Control effect of (ii) alone at corresponding dose.

Each structure is given as a SMILES string. Like-named read-outs stand apart in the source and are kept apart here.

Consider `Cc1ccccc1CO[C@@H]1C[C@@]2(C(C)C)CC[C@]1(C)O2` (racemic) [Cinmethylin], for which, under setting [1], the pest or weed control at 45 g/ha was 13.2%. In addition, under setting [2], the pest or weed control at […] is 54.5%. Further, the “Control effect of (ii) alone at corresponding dose” value (“Control effect of (ii) alone” below) under setting [3] is on record as 13.2%.
Regarding `O=C(O)CCCOc1ccc(Cl)cc1Cl` [2,4-D butyric acid], the “Control effect of (ii) alone” value runs as follows: under setting [4], 23.5%; under setting [5], 23.5%; (Monochoria vaginalis, (ii) 15 g a.i./mu) 65.3%; (Monochoria vaginalis, (ii) 15 g a.i./mu, stem-leaf treatment) 65.3%.
In the case of `CC(C)c1nn(C(=O)NC(C)(C)C)c(=O)n1N` [Amicarbazone], the “Control effect of (ii) alone” value under setting [4] amounted to 23.3%; the “Control effect of (ii) alone” value under setting [5] is 23.3%; the “Control effect of (ii) alone” value (Monochoria vaginalis, (ii) 10 g a.i./mu) is given as 51.6%; the “Control effect of (ii) alone” value (Monochoria vaginalis, (ii) 10 g a.i./mu, stem-leaf treatment) is given as 51.6%.
`COP(=S)(OC)SCC(=O)N(c1ccc(Cl)cc1)C(C)(C)C` [Anilofos]: the pest or weed control at 45 g/ha (Dinebra chinensis, 480 h, Leptochloa chinensis, (ii) 3 g a.i./mu, stem-leaf treatment, read-out: Control effect of (ii) alone at corresponding dose) is 30.8%. Further, the pest or weed control at 450 g/ha (Dinebra chinensis, 480 h, Leptochloa chinensis, (ii) 30 g a.i./mu, read-out: Control effect of (ii) alone at corresponding dose) is 62.6%. Also, under setting [6], the “Control effect of (ii) alone” value was 30.8%.
As to `CCNc1nc(Cl)nc(NC(C)C)n1` [Atrazine], the pest or weed control at 9 g/ha (480 h, Echinochloa phyllopogon, (ii) 0.6 g a.i./mu, read-out: Control effect of (ii) alone at corresponding dose) was determined as 2.3%. In addition, under setting [7], the pest or weed control at […] is 30.6%. Besides, the “Control effect of (ii) alone” value under setting [8] turned out to be 30.6%.
In the case of `CCC(Oc1ccc(F)c(C(F)(F)F)c1)C(=O)NCc1ccccc1` (stereo not shown) [Beflubutamid], the “Control effect of (ii) alone” value (Monochoria vaginalis, (ii) 1.5 g a.i./mu) is 15.3%; the “Control effect of (ii) alone” value under setting [9] is 40.3%; the “Control effect of (ii) alone” value (Monochoria vaginalis, (ii) 5 g a.i./mu, stem-leaf treatment) came to 40.3%.
With `CC(C)N1C(=O)c2ccccc2NS1(=O)=O` [Bentazone], the pest or weed control at 27 g/ha (480 h, Cyperus difformis, (ii) 1.8 g a.i./mu, read-out: Control effect of (ii) alone at corresponding dose) was found to be 18.2%. Moreover, the pest or weed control at 135 g/ha (480 h, Cyperus difformis, (ii) 9 g a.i./mu, stem-leaf treatment, read-out: Control effect of (ii) alone at corresponding dose) was 40.4%. Further, the “Control effect of (ii) alone” value (Cyperus difformis, (ii) 9 g a.i./mu) is 40.4%.
As to `CCN(CC)C(=O)SCc1ccc(Cl)cc1` [Benthiocarb], the “Control effect of (ii) alone” value runs as follows: under setting [10], 15.2%; (Cyperus difformis, (ii) 3 g a.i./mu, stem-leaf treatment) 15.2%; (Cyperus difformis, (ii) 30 g a.i./mu) 50.3%.
Consider `CS(=O)(=O)c1ccc(C(=O)C2=C(Sc3ccccc3)C3CCC(C3)C2=O)c(Cl)c1` (stereo not shown) [Benzobicylon], for which the “Control effect of (ii) alone” value is, setting by setting: under setting [6], 26.8%; (Leptochloa chinensis, (ii) 3 g a.i./mu, stem-leaf treatment) 26.8%; under setting [11], 68.2%; (Leptochloa chinensis, (ii) 15 g a.i./mu, stem-leaf treatment) 68.2%.
For `COc1cc(OC)nc(Oc2cccc(Oc3nc(OC)cc(OC)n3)c2C(=O)O)n1` [Bispyribac-sodium], where the note is “480 h, Cyperus difformis, (ii) 0.6 g a.i./mu, read-out: Control effect of (ii) alone at corresponding dose”, the pest or weed control at 9 g/ha is 39.5%. The pest or weed control at 15 g/ha (480 h, Cyperus difformis, (ii) 1 g a.i./mu, stem-leaf treatment, read-out: Control effect of (ii) alone at corresponding dose) turned out to be 70.4%. Also, where the note is “Cyperus difformis, (ii) 1 g a.i./mu”, the “Control effect of (ii) alone” value is reported as 70.4%.
As to `CCC(C)n1c(=O)[nH]c(C)c(Br)c1=O` (stereo not shown) [Bromacil], the pest or weed control at 45 g/ha under setting [1] stood at 12.8%. Under setting [12], the pest or weed control at 450 g/ha is 59.7%. In addition, the “Control effect of (ii) alone” value under setting [3] was found to be 12.8%.
As to `CCCCCCCC(=O)Oc1c(Br)cc(C#N)cc1Br` [Bromoxynil octanoate], where the note is “480 h, Sagittaria trifolia L., (ii) 0.6 g a.i./mu, read-out: Control effect of (ii) alone at corresponding dose”, the pest or weed control at 9 g/ha came to 6.4%. Also, the pest or weed control at 45 g/ha (480 h, Sagittaria trifolia, (ii) 3 g a.i./mu, stem-leaf treatment, read-out: Control effect of (ii) alone at corresponding dose) is 12.5%. Further, the “Control effect of (ii) alone” value (Sagittaria trifolia L., (ii) 3 g a.i./mu) was found to be 12.5%.
`CCCCOCN(C(=O)CCl)c1c(CC)cccc1CC` [Butachlor]: under setting [7], the pest or weed control at […] was 19.3%. The pest or weed control at 450 g/ha under setting [12] was 39.7%. In addition, the “Control effect of (ii) alone” value under setting [8] is listed as 19.3%.
Regarding `CCC(C)Nc1c([N+](=O)[O-])cc(C(C)(C)C)cc1[N+](=O)[O-]` (stereo not shown) [Butralin], under “480 h, Cyperus difformis, (ii) 3 g a.i./mu, stem-leaf treatment, read-out: Control effect of (ii) alone at corresponding dose”, the pest or weed control at 45 g/ha turned out to be 16.4%. The pest or weed control at 450 g/ha (480 h, Cyperus difformis, (ii) 30 g a.i./mu, read-out: Control effect of (ii) alone at corresponding dose) was 46.8%. Besides, the “Control effect of (ii) alone” value under setting [10] was 16.4%.
For `CCOC(=O)C(Cl)Cc1cc(-n2nc(C)n(C(F)F)c2=O)c(F)cc1Cl` (stereo not shown) [Carfentrazone-ethyl], the pest or weed control at 3 g/ha (480 h, Echinochloa phyllopogon, (ii) 0.2 g a.i./mu, stem-leaf treatment, read-out: Control effect of (ii) alone at corresponding dose) was determined as 5.3%. The pest or weed control at 120 g/ha (480 h, Echinochloa phyllopogon, (ii) 8 g a.i./mu, stem-leaf treatment, read-out: Control effect of (ii) alone at corresponding dose) was 73.6%. Further, the “Control effect of (ii) alone” value reads like this: (Echinochloa phyllopogon, (ii) 0.2 g a.i./mu) 5.3%; (Echinochloa phyllopogon, (ii) 8 g a.i./mu) 73.6%.
Regarding `Cc1ccc(NC(=O)N(C)C)cc1Cl` [Chlortoluron], the pest or weed control at 9 g/ha (480 h, Echinochloa phyllopogon, (ii) 0.6 g a.i./mu, stem-leaf treatment, read-out: Control effect of (ii) alone at corresponding dose) amounted to 18.3%. Besides, the pest or weed control at […] under setting [7] came out at 57.6%. For the same compound, the “Control effect of (ii) alone” value under setting [13] worked out at 18.3% and the “Control effect of (ii) alone” value under setting [8] was determined as 57.6%.
With `CC1(C)CON(Cc2ccccc2Cl)C1=O` [Clomazone], the pest or weed control at 45 g/ha (Dinebra chinensis, 480 h, Leptochloa chinensis, (ii) 3 g a.i./mu, read-out: Control effect of (ii) alone at corresponding dose) amounted to 16.8%. The pest or weed control at […] (Dinebra chinensis, 480 h, Leptochloa chinensis, (ii) 15 g a.i./mu, stem-leaf treatment, read-out: Control effect of (ii) alone at corresponding dose) turned out to be 53.6%. For the same compound, the “Control effect of (ii) alone” value under setting [11] was found to be 53.6%.
Take `O=C(O)c1nc(Cl)ccc1Cl` [Clopyralid]: for the setting “Monochoria vaginalis, (ii) 1 g a.i./mu”, the “Control effect of (ii) alone” value came out at 49.6%. In addition, the pest or weed control at 15 g/ha (Pontederia vaginalis, 480 h, Monochoria vaginalis, (ii) 1 g a.i./mu, stem-leaf treatment, read-out: Control effect of (ii) alone at corresponding dose) turned out to be 49.6%. Moreover, under “Pontederia vaginalis, 480 h, Monochoria vaginalis, (ii) 1.2 g a.i./mu, read-out: Control effect of (ii) alone at corresponding dose”, the pest or weed control at 18 g/ha turned out to be 56.3%.
For `CCCCOC(=O)[C@@H](C)Oc1ccc(Oc2ccc(C#N)cc2F)cc1` [Cyhalofop-butyl], under setting [1], the pest or weed control at 45 g/ha was 12.2%. Moreover, the pest or weed control at […] under setting [2] came to 45.1%. Besides, under setting [3], the “Control effect of (ii) alone” value was determined as 12.2%.
Take `COc1c(Cl)ccc(Cl)c1C(=O)O` [Dicamba]: the “Control effect of (ii) alone” value by setting is: under setting [4], 50.9%; under setting [9], 70.2%. Also, under setting [14], the pest or weed control at 45 g/ha stood at 50.9%. Also, the pest or weed control at 75 g/ha (Pontederia vaginalis, 480 h, Monochoria vaginalis, (ii) 5 g a.i./mu, stem-leaf treatment, read-out: Control effect of (ii) alone at corresponding dose) is 70.2%.
As for `CCN(C(=O)n1nnn(-c2ccccc2Cl)c1=O)C1CCCCC1` [Fentrazamide], the “Control effect of (ii) alone” value under setting [4] worked out at 30.2%. The pest or weed control at […] (Pontederia vaginalis, 480 h, Monochoria vaginalis, (ii) 1.5 g a.i./mu, read-out: Control effect of (ii) alone at corresponding dose) turned out to be 18.3%. Also, under setting [14], the pest or weed control at 45 g/ha was determined as 30.2%.
Consider `COc1c(Cl)ccc(-c2nc(C(=O)OCc3ccccc3)c(Cl)c(N)c2F)c1F` [Florpyrauxifen-benzyl], for which the “Control effect of (ii) alone” value runs as follows: under setting [13], 21.5%; (Echinochloa phyllopogon, (ii) 0.6 g a.i./mu, stem-leaf treatment) 21.5%; under setting [3], 70.5%; (Echinochloa phyllopogon, (ii) 3 g a.i./mu, stem-leaf treatment) 70.5%.
